# Laboratory results as given in patent US9593149B2, “Amylin and calcitonin receptor agonist” (Novo Nordisk A/S, priority 2014, dated 2017).
# Numbered stars: 1 amine (or outer) side, 2 acyl side, 3 side chain; on linkers, the order of the positions; unused ones are H or OH. Peptide text beside a SMILES is read from it. * marks the point of attachment. C20 diacid = O=C(O)CCCCCCCCCCCCCCCCCCC(=O)*; C18 diacid = O=C(O)CCCCCCCCCCCCCCCCC(=O)*; C16 diacid = O=C(O)CCCCCCCCCCCCCCC(=O)*; γGlu = O=C(O)[C@H](CCC(=O)[*:2])N[*:1]; C14 diacid = O=C(O)CCCCCCCCCCCCC(=O)*; AEEA = NCCOCCOCC(=O)O
# How the values were obtained:
# rat calcitonin receptor = biological target: T1, rat calcitonin receptor (Rattus norvegicus, UniProt P32214); test: Assay (VIII) binding to the rat calcitonin receptor; conditions: membranes; read-out: rCT-R binding IC50
# T1 construct: expressed in transfected cells; host or cells: BHK tk'ts 13 (transient, FuGENE 6)
# T1 sequence (P32214 25-479 isoform P32214-2 limits assumed): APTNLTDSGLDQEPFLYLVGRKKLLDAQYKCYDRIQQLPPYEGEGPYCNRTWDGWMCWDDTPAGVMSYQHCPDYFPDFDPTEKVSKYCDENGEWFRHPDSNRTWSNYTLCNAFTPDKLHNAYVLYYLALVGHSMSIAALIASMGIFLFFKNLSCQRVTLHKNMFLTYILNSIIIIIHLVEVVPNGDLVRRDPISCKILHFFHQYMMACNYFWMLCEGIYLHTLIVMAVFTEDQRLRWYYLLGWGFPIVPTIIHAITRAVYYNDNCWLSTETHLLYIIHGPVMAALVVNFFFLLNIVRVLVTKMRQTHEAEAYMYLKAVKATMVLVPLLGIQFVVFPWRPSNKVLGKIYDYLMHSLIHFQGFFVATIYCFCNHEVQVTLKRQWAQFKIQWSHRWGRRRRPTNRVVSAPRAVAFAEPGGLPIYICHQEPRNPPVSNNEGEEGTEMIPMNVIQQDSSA
# Method: The morning after, the plates were washed three times in HBSS (4° C.), and lyzed in Lysis buffer (0.1 M NaOH), 1% SDS. Scintillation cocktail (MicroScint40®) was added and the plates were shaken at 500 rpm for a short period. The plate was incubated at room temperature in the dark for 1 hour and Read on a TopCounter™ (Packard). The IC50 was calculated using (one site binding competition analysis) GraphPad Prism5 as a measure of receptor affinity. Assay (VIII)—Determination of Binding to the Rat Calcitonin Receptor
# The assay was performed as described above (Assay (VII)—Determination of binding to the human calcitonin receptor) with the exception that we used membranes prepared from BHK tk'ts 13 cells that were transiently transfected with the rat calcitonin receptor. The BHK tk'ts 13 cells were transiently transfected with rat calcitonin receptor using FuGENE® 6 (Roche), according to the manufacturer's recommendations. Cells were grown in DMEM with 10% FBS and 1% Pen/Strep.
# [1] = Assay (IV) determination of solubility; assay type: physicochemical
# Method: Assay (IV)—Determination of Solubility
# The mimylin peptide was dissolved in water at ˜500 nmol/ml and mixed 1:1 with a series of buffers (100 mM glycylglycine pH 3.0, 100 mM glycylglycine pH 4.0, 100 mM glycylglycine pH 5.0, 100 mM bistrispropane pH 6.0, 100 mM bistrispropane pH 6.5, 100 mM bistrispropane pH 7.0, 100 mM bistrispropane pH 7.5, 100 mM bistrispropane pH 8.0).
IC50 (rat calcitonin receptor),Solubility ([1]; pH 3.0),Solubility ([1]; pH 4.0),Solubility ([1]; pH 5.0),Solubility ([1]; pH 6.0),Solubility ([1]; pH 6.5),Solubility ([1]; pH 7.0),Solubility ([1]; pH 7.5),Solubility ([1]; pH 8.0),SMILES
0.044 nM,≧200 μM,≧200 μM,≧200 μM,≧200 μM,≧200 μM,≧200 μM,≧200 μM,≧200 μM,"CC(C)C[C@H](NC(=O)[C@H](C)NC(=O)[C@H](C)NC(=O)[C@@H](NC(=O)[C@H](CO)NC(=O)[C@H](CC(C)C)NC(=O)[C@H](CCC(=O)O)NC(=O)[C@H](CO)NC(=O)[C@H](C)NC(=O)COCCOCCNC(=O)CC[C@H](NC(=O)CCCCCCCCCCCCCCCCCCC(=O)O)C(=O)O)[C@@H](C)O)C(=O)NCC(=O)N[C@@H](CCCNC(=N)N)C(=O)N[C@@H](CC(C)C)C(=O)N[C@@H](CO)C(=O)N[C@@H](C)C(=O)N[C@@H](CCC(=O)O)C(=O)N[C@@H](CC(C)C)C(=O)N[C@@H](Cc1cnc[nH]1)C(=O)N[C@@H](CCC(=O)O)C(=O)N[C@@H](CC(C)C)C(=O)N[C@@H](C)C(=O)N[C@H](C(=O)N[C@@H](CC(C)C)C(=O)N1CCC[C@H]1C(=O)N[C@@H](CCCNC(=N)N)C(=O)N[C@H](C(=O)N[C@@H](CCC(=O)O)C(=O)N[C@H](C(=O)NCC(=O)N[C@@H](CO)C(=O)NCC(=O)N[C@@H](CO)C(=O)N1CCC[C@H]1C(N)=O)[C@@H](C)O)[C@@H](C)O)[C@@H](C)O [compound 41, [N-terminal(C20 diacid-gGlu-OEG), des1, 30S, 31G]mimylin] ({C20 diacid-γGlu-AEEA}-ASELSTAALGRLSAELHELATLPRTETGSGSP-NH2)"
0.013 nM,≧200 μM,≧200 μM,≧200 μM,≧200 μM,≧200 μM,≧200 μM,≧200 μM,≧200 μM,"CC(C)C[C@H](NC(=O)[C@H](C)NC(=O)[C@H](C)NC(=O)[C@@H](NC(=O)[C@H](CO)NC(=O)[C@H](CC(C)C)NC(=O)[C@H](CCC(=O)O)NC(=O)[C@H](CO)NC(=O)[C@H](C)NC(=O)CC[C@H](NC(=O)CCCCCCCCCCCCCCC(=O)O)C(=O)O)[C@@H](C)O)C(=O)NCC(=O)N[C@@H](CCCNC(=N)N)C(=O)N[C@@H](CC(C)C)C(=O)N[C@@H](CO)C(=O)N[C@@H](C)C(=O)N[C@@H](CCC(=O)O)C(=O)N[C@@H](CC(C)C)C(=O)N[C@@H](Cc1cnc[nH]1)C(=O)N[C@@H](CCC(=O)O)C(=O)N[C@@H](CC(C)C)C(=O)N[C@@H](C)C(=O)N[C@H](C(=O)N[C@@H](CC(C)C)C(=O)N1CCC[C@H]1C(=O)N[C@@H](CCCNC(=N)N)C(=O)N[C@H](C(=O)N[C@@H](CCC(=O)O)C(=O)N[C@H](C(=O)NCC(=O)N[C@@H](CO)C(=O)NCC(=O)N[C@@H](CO)C(=O)N1CCC[C@H]1C(N)=O)[C@@H](C)O)[C@@H](C)O)[C@@H](C)O [compound 47, [N-terminal(C16 diacid-gGlu), des1, 30S, 31G]mimylin] ({C16 diacid-γGlu}-ASELSTAALGRLSAELHELATLPRTETGSGSP-NH2)"
0.013 nM,≧200 μM,≧200 μM,≧200 μM,≧200 μM,≧200 μM,≧200 μM,≧200 μM,≧200 μM,"CC(C)C[C@H](NC(=O)[C@H](C)NC(=O)[C@H](C)NC(=O)[C@@H](NC(=O)[C@H](CO)NC(=O)[C@H](CC(C)C)NC(=O)[C@H](CCC(=O)O)NC(=O)[C@H](CO)NC(=O)[C@H](C)NC(=O)CCCCCCCCCCCCCCCCC(=O)O)[C@@H](C)O)C(=O)NCC(=O)N[C@@H](CCCNC(=N)N)C(=O)N[C@@H](CC(C)C)C(=O)N[C@@H](CO)C(=O)N[C@@H](C)C(=O)N[C@@H](CCC(=O)O)C(=O)N[C@@H](CC(C)C)C(=O)N[C@@H](Cc1cnc[nH]1)C(=O)N[C@@H](CCC(=O)O)C(=O)N[C@@H](CC(C)C)C(=O)N[C@@H](C)C(=O)N[C@H](C(=O)N[C@@H](CC(C)C)C(=O)N1CCC[C@H]1C(=O)N[C@@H](CCCNC(=N)N)C(=O)N[C@H](C(=O)N[C@@H](CCC(=O)O)C(=O)N[C@H](C(=O)NCC(=O)N[C@@H](CO)C(=O)NCC(=O)N[C@@H](CO)C(=O)N1CCC[C@H]1C(N)=O)[C@@H](C)O)[C@@H](C)O)[C@@H](C)O [compound 48, [N-terminal(C18 diacid), des1, 30S, 31G]mimylin] ({C18 diacid}-ASELSTAALGRLSAELHELATLPRTETGSGSP-NH2)"
0.011 nM,≧200 μM,≧200 μM,≧200 μM,≧200 μM,≧200 μM,≧200 μM,≧200 μM,≧200 μM,"CC(C)C[C@H](NC(=O)[C@H](C)NC(=O)[C@H](C)NC(=O)[C@@H](NC(=O)[C@H](CO)NC(=O)[C@H](CC(C)C)NC(=O)[C@H](CCC(=O)O)NC(=O)[C@H](CO)NC(=O)[C@H](C)NC(=O)CCCCCCCCCCCCCCC(=O)O)[C@@H](C)O)C(=O)NCC(=O)N[C@@H](CCCNC(=N)N)C(=O)N[C@@H](CC(C)C)C(=O)N[C@@H](CO)C(=O)N[C@@H](C)C(=O)N[C@@H](CCC(=O)O)C(=O)N[C@@H](CC(C)C)C(=O)N[C@@H](Cc1cnc[nH]1)C(=O)N[C@@H](CCC(=O)O)C(=O)N[C@@H](CC(C)C)C(=O)N[C@@H](C)C(=O)N[C@H](C(=O)N[C@@H](CC(C)C)C(=O)N1CCC[C@H]1C(=O)N[C@@H](CCCNC(=N)N)C(=O)N[C@H](C(=O)N[C@@H](CCC(=O)O)C(=O)N[C@H](C(=O)NCC(=O)N[C@@H](CO)C(=O)NCC(=O)N[C@@H](CO)C(=O)N1CCC[C@H]1C(N)=O)[C@@H](C)O)[C@@H](C)O)[C@@H](C)O [compound 49, [N-terminal(C16 diacid), des1, 30S, 31G]mimylin] ({C16 diacid}-ASELSTAALGRLSAELHELATLPRTETGSGSP-NH2)"
0.017 nM,≧200 μM,≧200 μM,≧200 μM,≧200 μM,≧200 μM,≧200 μM,≧200 μM,≧200 μM,"CC(C)C[C@H](NC(=O)[C@H](C)NC(=O)[C@H](C)NC(=O)[C@@H](NC(=O)[C@H](CO)NC(=O)[C@H](CC(C)C)NC(=O)[C@H](CCC(=O)O)NC(=O)[C@H](CO)NC(=O)[C@H](C)NC(=O)CC[C@H](NC(=O)CCCCCCCCCCCCC(=O)O)C(=O)O)[C@@H](C)O)C(=O)NCC(=O)N[C@@H](CCCNC(=N)N)C(=O)N[C@@H](CC(C)C)C(=O)N[C@@H](CO)C(=O)N[C@@H](C)C(=O)N[C@@H](CCC(=O)O)C(=O)N[C@@H](CC(C)C)C(=O)N[C@@H](Cc1cnc[nH]1)C(=O)N[C@@H](CCC(=O)O)C(=O)N[C@@H](CC(C)C)C(=O)N[C@@H](C)C(=O)N[C@H](C(=O)N[C@@H](CC(C)C)C(=O)N1CCC[C@H]1C(=O)N[C@@H](CCCNC(=N)N)C(=O)N[C@H](C(=O)N[C@@H](CCC(=O)O)C(=O)N[C@H](C(=O)NCC(=O)N[C@@H](CO)C(=O)NCC(=O)N[C@@H](CO)C(=O)N1CCC[C@H]1C(N)=O)[C@@H](C)O)[C@@H](C)O)[C@@H](C)O [compound 50, [N-terminal(C14 diacid-gGlu), des1, 30S, 31G]mimylin] ({C14 diacid-γGlu}-ASELSTAALGRLSAELHELATLPRTETGSGSP-NH2)"
0.123 nM,≧200 μM,≧200 μM,≧200 μM,≧200 μM,≧200 μM,≧200 μM,≧200 μM,≧200 μM,"CC(C)C[C@H](NC(=O)[C@H](C)NC(=O)[C@H](C)NC(=O)[C@@H](NC(=O)[C@H](CO)NC(=O)[C@H](CC(C)C)NC(=O)[C@H](CCC(=O)O)NC(=O)[C@H](CO)NC(=O)[C@H](C)NC(=O)CCCCCCCCCCCCC(=O)O)[C@@H](C)O)C(=O)NCC(=O)N[C@@H](CCCNC(=N)N)C(=O)N[C@@H](CC(C)C)C(=O)N[C@@H](CO)C(=O)N[C@@H](C)C(=O)N[C@@H](CCC(=O)O)C(=O)N[C@@H](CC(C)C)C(=O)N[C@@H](Cc1cnc[nH]1)C(=O)N[C@@H](CCC(=O)O)C(=O)N[C@@H](CC(C)C)C(=O)N[C@@H](C)C(=O)N[C@H](C(=O)N[C@@H](CC(C)C)C(=O)N1CCC[C@H]1C(=O)N[C@@H](CCCNC(=N)N)C(=O)N[C@H](C(=O)N[C@@H](CCC(=O)O)C(=O)N[C@H](C(=O)NCC(=O)N[C@@H](CO)C(=O)NCC(=O)N[C@@H](CO)C(=O)N1CCC[C@H]1C(N)=O)[C@@H](C)O)[C@@H](C)O)[C@@H](C)O [compound 51, [N-terminal(C14 diacid), des1, 30S, 31G]mimylin] ({C14 diacid}-ASELSTAALGRLSAELHELATLPRTETGSGSP-NH2)"
